# System: E. multilocularis metacestode vesicles
# Assay: Phosphoglucose isomerase (PGI) release assay (damage-marker release) on metacestode vesicles
# Assay type: cell-based, Echinococcus multilocularis
# Conditions: confirmation screen, 10 μM, triplicates, mean, 5 days
# Experimental: In order to quantify the drug-induced damage on whole metacestode vesicles, phosphoglucose isomerase (PGI) assay was performed as described previously ([Stadelmann et al., 2010]) with few adaptations published recently ([Kaethner et al., 2023]). In short, 8 to 12 weeks-old metacestode vesicles were purified using 2 % sucrose with subsequent washes in PBS. Metacestode vesicles were diluted in two volumes of DMEM without phenol red containing penicillin (100 U/mL) and streptomycin (100 μg/mL). […] 0.1 % DMSO was used as a negative solvent control and 0.1 % Triton X-100 was used as a positive total damage control. Metacestode vesicles were incubated under a humid, 5 % CO2 atmosphere at 37 °C. After five and twelve days, supernatant was taken and pictures were made using a Nikon SMZ18 stereo microscope (Nikon, Basel, Switzerland) at 7.5 × magnification. PGI activity in the supernatants was measured on a HIDEX Sense microplate reader (Hidex, Turku, Finland). The corresponding values of the DMSO controls were subtracted from the values of the compounds and then PGI activity was calculated relative to 0.1 % Triton X-100. […] IC50 values were calculated applying the 3 parameter Weibull type 1 in R for each of the three independent experiments ([Ritler et al., 2020]).
row,SMILES,PGI d5 (relative PGI release)
1,c1ccc(Cn2c(-c3ccccn3)nc3ccccc32)cc1 [MMV1578886],-0.18%
2,O=S(=O)(Nc1cccc2cccnc12)c1ccccc1 [MMV1578890],0.50%
3,CCC[C@@H]1C[C@@H](C(=O)N[C@@H]([C@H]2O[C@H](SC)[C@H](O)[C@@H](O)[C@H]2O)[C@H](C)Cl)N(C)C1.Cl [MMV000051],0.38%
4,O=C(/C(=C/c1ccc(Cl)cc1Cl)n1ccnc1)c1ccc(Cl)cc1 [MMV1634491],0.16%
5,CC(C)N=c1cc2n(-c3ccc(Cl)cc3)c3ccccc3nc-2cc1Nc1ccc(Cl)cc1 [MMV687800],0.81%

# Same assay, conditions: confirmation screen, 10 μM, triplicates, mean, 12 days
row,SMILES,PGI d12 (relative PGI release)
1,c1ccc(Cn2c(-c3ccccn3)nc3ccccc32)cc1 [MMV1578886],-0.24%
2,O=S(=O)(Nc1cccc2cccnc12)c1ccccc1 [MMV1578890],-0.0456%
3,CCC[C@@H]1C[C@@H](C(=O)N[C@@H]([C@H]2O[C@H](SC)[C@H](O)[C@@H](O)[C@H]2O)[C@H](C)Cl)N(C)C1.Cl [MMV000051],-0.19%
4,O=C(/C(=C/c1ccc(Cl)cc1Cl)n1ccnc1)c1ccc(Cl)cc1 [MMV1634491],5.15%
5,CC(C)N=c1cc2n(-c3ccc(Cl)cc3)c3ccccc3nc-2cc1Nc1ccc(Cl)cc1 [MMV687800],1.29%

# Same assay, conditions: overview screen, 10 μM, singlets, 5 days, relative to 0.1 % Triton X-100, DMSO subtracted
row,SMILES,PGI d5 (relative PGI release)
1,Clc1cccc(-c2nnc(-c3ccccc3)o2)c1 [MMV141011],-1.462%
2,C[C@H](NC(=O)C(=O)Nc1ccccc1C(C)(C)C)C(=O)N[C@@H](CC(=O)O)C(=O)COc1c(F)c(F)cc(F)c1F [MMV1580794],-0.7921%
3,CC[C@@H]1C(=O)OC[C@@H]1Cc1cncn1C.Cl [MMV002516],-2.121%
4,Oc1cc(-c2cccc3ccccc23)[nH]n1 [MMV422940],-1.4338%
5,c1ccc(Cn2c(-c3ccccn3)nc3ccccc32)cc1 [MMV1578886],-1.473%
6,C[C@H]1[C@@H](c2cccc(C(F)(F)F)c2)OC(=O)N1C(=O)NCc1cncc2ccccc12 [MMV1593533],-2.428%
7,Nc1cccc(-c2nc(N)nc(NC3Cc4ccccc4C3)n2)c1 [MMV1581555],2.438%
8,Nc1nc(O)c(Br)c(-c2cccc(Cl)c2)n1 [MMV1645152],-0.1718%
9,COc1ccc(CNC(=O)C2CCN(C(C)c3cccc4ccccc34)CC2)cc1 (stereo not drawn) [MMV1634397],1.669%
10,COc1cc(C)c2c(Oc3cccc(C(F)(F)F)c3)c(OC)cc(NC(C)CCCN)c2n1.O=C(O)CCC(=O)O (stereo not drawn) [MMV000043],8.8572%
11,CCCCCCCc1[nH]c2ccccc2c(=O)c1O [MMV1578561],-1.205%
12,O=S(=O)(Nc1cccc2cccnc12)c1ccccc1 [MMV1578890],53.5139%
13,COc1cc(Cc2cc(N)nc(N)n2)cc(OC)c1OC [MMV1579846],1.265%
14,CCc1ccccc1OCCN1CCCCCC1 [MMV1633962],1.217%
15,CCCCc1ccc(S(=O)(=O)Nc2cc(C)on2)cc1 [MMV1782108],-2.561%
16,COc1ccc(C2CNC(=O)C2)cc1OC1CCCC1 (stereo not drawn) [MMV003738],-0.5058%
17,CCC[C@@H]1C[C@@H](C(=O)N[C@@H]([C@H]2O[C@H](SC)[C@H](O)[C@@H](O)[C@H]2O)[C@H](C)Cl)N(C)C1.Cl [MMV000051],15.4885%
18,O=C(/C(=C/c1ccc(Cl)cc1Cl)n1ccnc1)c1ccc(Cl)cc1 [MMV1634491],24.947%
19,CC(C)N=c1cc2n(-c3ccc(Cl)cc3)c3ccccc3nc-2cc1Nc1ccc(Cl)cc1 [MMV687800],10.9227%

# Same assay, conditions: overview screen, 10 μM, singlets, 12 days, relative to 0.1 % Triton X-100, DMSO subtracted
row,SMILES,PGI d12 (relative PGI release)
1,Clc1cccc(-c2nnc(-c3ccccc3)o2)c1 [MMV141011],-13.7141%
2,C[C@H](NC(=O)C(=O)Nc1ccccc1C(C)(C)C)C(=O)N[C@@H](CC(=O)O)C(=O)COc1c(F)c(F)cc(F)c1F [MMV1580794],-19.0747%
3,CC[C@@H]1C(=O)OC[C@@H]1Cc1cncn1C.Cl [MMV002516],-7.265%
4,Oc1cc(-c2cccc3ccccc23)[nH]n1 [MMV422940],-25.9471%
5,c1ccc(Cn2c(-c3ccccn3)nc3ccccc32)cc1 [MMV1578886],58.1597%
6,C[C@H]1[C@@H](c2cccc(C(F)(F)F)c2)OC(=O)N1C(=O)NCc1cncc2ccccc12 [MMV1593533],-25.2459%
7,Nc1cccc(-c2nc(N)nc(NC3Cc4ccccc4C3)n2)c1 [MMV1581555],-5.225%
8,Nc1nc(O)c(Br)c(-c2cccc(Cl)c2)n1 [MMV1645152],-17.4315%
9,COc1ccc(CNC(=O)C2CCN(C(C)c3cccc4ccccc34)CC2)cc1 (stereo not drawn) [MMV1634397],-0.9153%
10,COc1cc(C)c2c(Oc3cccc(C(F)(F)F)c3)c(OC)cc(NC(C)CCCN)c2n1.O=C(O)CCC(=O)O (stereo not drawn) [MMV000043],-12.8411%
11,CCCCCCCc1[nH]c2ccccc2c(=O)c1O [MMV1578561],-12.6441%
12,O=S(=O)(Nc1cccc2cccnc12)c1ccccc1 [MMV1578890],49.7638%
13,COc1cc(Cc2cc(N)nc(N)n2)cc(OC)c1OC [MMV1579846],19.1796%
14,CCc1ccccc1OCCN1CCCCCC1 [MMV1633962],-18.8642%
15,CCCCc1ccc(S(=O)(=O)Nc2cc(C)on2)cc1 [MMV1782108],-24.5808%
16,COc1ccc(C2CNC(=O)C2)cc1OC1CCCC1 (stereo not drawn) [MMV003738],-19.6179%
17,CCC[C@@H]1C[C@@H](C(=O)N[C@@H]([C@H]2O[C@H](SC)[C@H](O)[C@@H](O)[C@H]2O)[C@H](C)Cl)N(C)C1.Cl [MMV000051],58.7211%
18,O=C(/C(=C/c1ccc(Cl)cc1Cl)n1ccnc1)c1ccc(Cl)cc1 [MMV1634491],25.566%
19,CC(C)N=c1cc2n(-c3ccc(Cl)cc3)c3ccccc3nc-2cc1Nc1ccc(Cl)cc1 [MMV687800],104.553%

# System: E. multilocularis metacestode vesicles
# Assay: Metacestode vesicle viability assay (ATP, CellTiter-Glo)
# Assay type: cell-based, Echinococcus multilocularis
# Conditions: confirmation screen, 10 μM, triplicates, mean, 12 days
# Experimental: Viability was assessed after 12 days using the same metacestode vesicles as for the PGI release assay. Triton X-100 was added to each well to a final concentration of 0.1 %. Subsequently the metacestode vesicles were broken mechanically and 50 μL of the supernatant was mixed with 50 μL of CellTiter-Glo® buffer (Promega, Dübendorf, Switzerland). Measurements were performed on a HIDEX Sense microplate reader.
row,SMILES,Viability d12 (relative viability)
1,c1ccc(Cn2c(-c3ccccn3)nc3ccccc32)cc1 [MMV1578886],94.29%
2,O=S(=O)(Nc1cccc2cccnc12)c1ccccc1 [MMV1578890],68.64%
3,CCC[C@@H]1C[C@@H](C(=O)N[C@@H]([C@H]2O[C@H](SC)[C@H](O)[C@@H](O)[C@H]2O)[C@H](C)Cl)N(C)C1.Cl [MMV000051],61.99%
4,O=C(/C(=C/c1ccc(Cl)cc1Cl)n1ccnc1)c1ccc(Cl)cc1 [MMV1634491],83.69%
5,CC(C)N=c1cc2n(-c3ccc(Cl)cc3)c3ccccc3nc-2cc1Nc1ccc(Cl)cc1 [MMV687800],142.49%

# Same assay, conditions: overview screen, 10 μM, singlets, 12 days, relative to DMSO control
row,SMILES,Viability d12 (relative viability)
1,Clc1cccc(-c2nnc(-c3ccccc3)o2)c1 [MMV141011],31.8959%
2,C[C@H](NC(=O)C(=O)Nc1ccccc1C(C)(C)C)C(=O)N[C@@H](CC(=O)O)C(=O)COc1c(F)c(F)cc(F)c1F [MMV1580794],57.1149%
3,CC[C@@H]1C(=O)OC[C@@H]1Cc1cncn1C.Cl [MMV002516],84.666%
4,Oc1cc(-c2cccc3ccccc23)[nH]n1 [MMV422940],50.1817%
5,c1ccc(Cn2c(-c3ccccn3)nc3ccccc32)cc1 [MMV1578886],16.9499%
6,C[C@H]1[C@@H](c2cccc(C(F)(F)F)c2)OC(=O)N1C(=O)NCc1cncc2ccccc12 [MMV1593533],85.501%
7,Nc1cccc(-c2nc(N)nc(NC3Cc4ccccc4C3)n2)c1 [MMV1581555],66.1297%
8,Nc1nc(O)c(Br)c(-c2cccc(Cl)c2)n1 [MMV1645152],465.171%
9,COc1ccc(CNC(=O)C2CCN(C(C)c3cccc4ccccc34)CC2)cc1 (stereo not drawn) [MMV1634397],68.3168%
10,COc1cc(C)c2c(Oc3cccc(C(F)(F)F)c3)c(OC)cc(NC(C)CCCN)c2n1.O=C(O)CCC(=O)O (stereo not drawn) [MMV000043],100.948%
11,CCCCCCCc1[nH]c2ccccc2c(=O)c1O [MMV1578561],124.494%
12,O=S(=O)(Nc1cccc2cccnc12)c1ccccc1 [MMV1578890],2.254%
13,COc1cc(Cc2cc(N)nc(N)n2)cc(OC)c1OC [MMV1579846],26.7191%
14,CCc1ccccc1OCCN1CCCCCC1 [MMV1633962],159.976%
15,CCCCc1ccc(S(=O)(=O)Nc2cc(C)on2)cc1 [MMV1782108],50.3487%
16,COc1ccc(C2CNC(=O)C2)cc1OC1CCCC1 (stereo not drawn) [MMV003738],180.575%
17,CCC[C@@H]1C[C@@H](C(=O)N[C@@H]([C@H]2O[C@H](SC)[C@H](O)[C@@H](O)[C@H]2O)[C@H](C)Cl)N(C)C1.Cl [MMV000051],23.7506%
18,O=C(/C(=C/c1ccc(Cl)cc1Cl)n1ccnc1)c1ccc(Cl)cc1 [MMV1634491],14.6955%
19,CC(C)N=c1cc2n(-c3ccc(Cl)cc3)c3ccccc3nc-2cc1Nc1ccc(Cl)cc1 [MMV687800],4.175%

# — paper PMC12410356 (International Journal for Parasitology: Drugs and Drug …, 2025)
